Experimental data published in US11840548B2, “UV-curable phosphonium small molecules as antimicrobial coatings and surface active additives” (SCI RESOURCE PLATFORM INC., priority 2020, dated 2023).
Entries after “also recorded” stand apart in the source; their conditions may differ.

How the values were obtained:
[1] = system: E. coli (ATCC strain 11229); test: large drop inoculum (LDI) test, E. coli; assay type: cell-based; conditions: UV-cured coating on polystyrene plastic; after 24 hours in contact with the surface
Source text: To guarantee all inoculated cells enter into contact with the test surface, […], serially diluted, plated out onto tryptic soy agar, and enumerated to assess the extent of cell survival and thus antimicrobial efficacy of the test surfaces. Arthrobacter (IAI-3) and E. coli (ATCC strain 11229) were chosen as representative Gram-positive and Gram-negative bacterial strains.
The efficacy of these materials against the representative strains of Gram-negative and Gram-positive bacteria lead us to probe the antimicrobial capability of these materials after being subject to abrasive processes, to determine whether tethered sub-surface phosphonium observed by XPS can translate to materials with antimicrobial properties after the surface has be abraded. The process of using an aqueous solution to wipe or rub away dirt or bacteria is one fundamental to sanitation,^50 and as such the solvent double rub protocol described in ASTM D5402^51 was chosen as a representative test of durability. Water was chosen as the solvent due to its ubiquity in cleaning solutions. The same extruded polypropylene samples subjected to the LDI were first rinsed with copious amounts of sterile distilled water, then vortexed for 5 minutes in saline to remove any bacterial debris from the initial test. After another rinse step, the pieces were subjected to 100 solvent double rubs on the tested side using a cotton cloth saturated with distilled water, the amount of force of each rub measured to be between 1000 g and 1600 g. After 100 double rubs, the pieces were rinsed, sterilized under UV light, and the abraded sides were subject to another loading of bacteria.

[2] = advancing water contact angle measurement; assay type: physicochemical; conditions: UV-cured phosphonium coating on polystyrene; triplicate
Method: Advancing water contact angle (θC) measurements were performed on the coated pieces to further probe the relationship between the structure of the phosphonium small molecules coated on the substrate and their macroscopic properties as coatings. Measurements for θC trend with charge density results (Table 1).
Thus, after the coating step, a pre-extrusion UV-cure process was introduced to immobilize the phosphoniums to the plastic bead surface. Extrusion of these pre-cured beads at 220° C. into a mold pre-heated to 100° C. yielded the tributylphosphonium-containing plastic PP-2, triphenylphosphonium-containing PP-3, (FIG. 8) and perfluoroalkylphosphonium-containing PP-4 as off-white coloured “dogbone” pieces. The discoloration was due to the amber or off-white natural coloring of the phosphoniums added to the melt, and not UV or heat exposure. The effect of incorporating each phosphonium at 1% was quantified by advancing WCA (Table 1). […] FIG. 1 is a schematic illustration showing a cross section of antimicrobial-enriched plastic with sub-surface phosphonium, which upon abrasion is exposed and available to combat microbial growth.

Arthrobacter sp. (IAI-3) = test: large drop inoculum (LDI) test, Arthrobacter; assay type: cell-based; conditions: UV-cured coating on polystyrene plastic; after 3 hours in contact with the surface
Method: To guarantee all inoculated cells enter into contact with the test surface, the samples with the droplet are subjected to a standardized 3 h drying period. The cells are then recovered, serially diluted, plated out onto tryptic soy agar, and enumerated to assess the extent of cell survival and thus antimicrobial efficacy of the test surfaces. Arthrobacter (IAI-3) and E. coli (ATCC strain 11229) were chosen as representative Gram-positive and Gram-negative bacterial strains.

θc, advancing water contact angle [2] [deg] | SMILES | reduction of viable Gram-negative E. coli cells [1] | reduction of viable Gram-positive Arthrobacter cells (Arthrobacter sp. (IAI-3))
71.9 ± 5.1 | C[P+](C)(C)CCCOc1ccc(C(=O)c2ccccc2)cc1.[Br-] [phosphonium 1] | failing to reduce bacterial survivability; also recorded: lack of observed antimicrobial activity | failing to reduce bacterial survivability; also recorded: lack of observed antimicrobial activity
36.4±11.0 | CCCC[P+](CCCC)(CCCC)CCCOc1ccc(C(=O)c2ccccc2)cc1.[Br-] [phosphonium 2] | full reductions | full reductions
63.5±5.8 | O=C(c1ccccc1)c1ccc(OCCC[P+](c2ccccc2)(c2ccccc2)c2ccccc2)cc1.[Br-] [phosphonium 3] | full reductions | full reductions

SMILES | θc, advancing water contact angle [2] [deg] | reduction of viable Gram-negative E. coli cells [1] | reduction of viable Gram-positive Arthrobacter cells (Arthrobacter sp. (IAI-3))
O=C(c1ccccc1)c1ccc(OCCC[P+](CCC(F)(F)C(F)(F)C(F)(F)C(F)(F)C(F)(F)C(F)(F)F)(c2ccccc2)c2ccccc2)cc1.[Br-] [phosphonium 4] | 68.0±2.0 | full reductions | full reductions
